Key:
[1] = biological target: T1, synoviolin activity of ubiquitinating P4HA1 (Homo sapiens, UniProt Q86TM6); test: Inhibition of ubiquitination activity using energy transfer of XL665-Eu(K) (HTRF method); type: biochemical; conditions: Eu(K)-labeled ubiquitin, GST-P4HA1 substrate, compared with binding inhibition
T1 construct: comprises a MBP-fused synoviolin that lacks the transmembrane segment (TM) (synoviolin dTM); made in house; host or cells: Escherichia coli
Experimental: A method of high-throughput screening (HTS) for compounds that inhibit the synoviolin activity of ubiquitinating P4HA1 was investigated. A system was designed in which ubiquitination by Eu(K)-labeled ubiquitin was conducted using P4HA1 expressed as a GST-fused protein as a substrate. When P4HA1 underwent Eu(K)-labeled ubiquitination, energy transfer occurred between an XL665-labeled anti-GST antibody and an Eu(K)-labeled ubiquitin, and fluorescence was detected.
A standard reaction mixture comprising 60 ng MBP-synoviolin-His, 15 ng GST-P4HA1, 15 ng E1 (Boston Biochem), 200 ng His-E2, 6.25 nM Eu(K)-labeled ubiquitin (CIS bio international), 5 mM MgCl2, 2 mM ATP, 1 mM DTT, 0.1% BSA, 0.3% DMSO, and a test compound in 15 μL of a 20 mM HEPES (pH 7.5) solution was prepared using a 384-well plate. After a 30 minute reaction at 37° C., 5 μL of 0.5 M EDTA was added to terminate the reaction. To this was added 5 μL of 20 mM HEPES solution containing an XL665-labeled […] antibody (0.025 μg) and 1 M K, and the mixture was left to stand overnight at room temperature, and the fluorescence was measured using RUBYstar™.

[2] = biological target: T1, synoviolin activity of ubiquitinating P4HA1; test: Inhibition of ubiquitination activity using ELISA; type: biochemical; conditions: anti-GST capture, anti-ubiquitin detection, OD 450 nm
Experimental: A 96-well ELISA plate was adsorbed with an anti-GST antibody at 4° C. overnight and then blocked with 5% BSA/PBS solution at room temperature until it was used. The plate was washed twice before use with 300 μL of PBS containing 0.3% BSA (PBSA).
A standard reaction mixture comprising 80 ng MBP-synoviolin-His, 40 ng GST-P4HA1, 15 ng E1, 200 ng His-E2, 5 mM MgCl2, 2 mMATP, 1 mM DTT, 0.1% BSA, 0.3% DMSO, and a test compound in 30 μL of 50 mM HEPES (pH 7.5) solution was prepared in a reaction tube. After a 30 minute reaction at room temperature, 70 μL of a solution containing 70 mM EDTA and 50 mM HEPES was added to terminate the reaction. This (30 μl) was added to a plate previously containing 70 μL PBSA and incubated at room temperature for 1 hour. After washing three times with 300 μL of PBSA, 100 μL of a mouse anti-ubiquitin antibody solution diluted 1:5000 in PBSA was added, and the mixture was incubated at room temperature for 1 hour. After three washes with 300 μL of PBSA, 100 μL of a peroxidase-labeled anti-mouse IgG solution diluted 1:10000 in PBSA was added, and the mixture was incubated at room temperature for 1 hour. […] When a sufficient coloration was observed, 1 M phosphoric acid was added to terminate the reaction, and the optical density at 450 nm was measured.

T1 sequence (Q86TM6 246-617 limits assumed): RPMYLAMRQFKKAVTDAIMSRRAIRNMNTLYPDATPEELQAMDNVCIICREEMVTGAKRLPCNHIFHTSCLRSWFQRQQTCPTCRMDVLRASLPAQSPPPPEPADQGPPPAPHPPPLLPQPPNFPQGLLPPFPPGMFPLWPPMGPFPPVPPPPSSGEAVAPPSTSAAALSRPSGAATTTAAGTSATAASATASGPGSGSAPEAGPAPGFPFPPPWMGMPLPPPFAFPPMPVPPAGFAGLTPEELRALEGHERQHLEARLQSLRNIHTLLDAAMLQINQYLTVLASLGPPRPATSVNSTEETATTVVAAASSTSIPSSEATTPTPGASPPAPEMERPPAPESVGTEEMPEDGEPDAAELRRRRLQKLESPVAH

DNVCIICREEMVTGAKRLDCN [SEQ ID NO: 5]
concentration inhibiting the ubiquitination of P4HA1, relative to that for inhibition of the binding [1]: 20 times lower | IC50 of inhibition of the ubiquitination of P4HA1 [2]: 55 µg/mL

— patent US20070134720A1, “Method of detecting effect of controlling synoviolin activity” (priority 2003, published 2007)
